Results on one molecule are retold here after PubChem BioAssay (NCI).

What all share (assay): growth of human tumour cells (NCI), 384-well format
The subject of assay [1] is MALME-3M melanoma.
Assay [2] has as its system HCT-116 colon.
In assay [3] the test system is MOLT-4 leukemia.
The subject of assay [4] is SK-OV-3 ovarian.
Assay [5] has as its system MDA-MB-468 breast.
For assay [6], the system named is CAKI-1 renal.
Assay [7] deals with DU-145 prostate.
For assay [8], the system named is SW-620 colon.
In assay [9] the test system is K-562 leukemia.
Assay [10] has as its system CCRF-CEM leukemia.
The subject of assay [11] is LOX IMVI melanoma.
Assay [12] relates to OVCAR-8 ovarian.
The test system of assay [13] is HL-60(TB) leukemia.
Assay [14] relates to RPMI-8226 leukemia.

Molecules are shown by their SMILES.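 GI50 = concentration required for 50% inhibition of growth. Definition used: TGI = concentration required for complete inhibition of growth.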

Turning to `CN(C)/N=N/c1nc[nH]c1C(N)=O`, the GI50 in assay [1] was 79.5 µM; in assay [2], 66.3 µM; in assay [3], 6.9 µM; in assay [4] it was 95.3 µM; in [5] it was 30.4 µM; in assay [6], 34.7 µM. Moreover, the GI50 is 83.8 µM in assay [7]; 97.4 µM in assay [8]; 44.6 µM in assay [9]; 45.5 µM in [10]; 29.2 µM in assay [11]; 69.9 µM in [12]. Besides, the GI50 in assay [13] is 6.42 µM; in assay [14], 18.3 µM. In assay [3], this molecule had a TGI of 21.7 µM.
